Experimental data as given in patent US20260001871A1, “TRIAZOLE DERIVATIVES AS MODULATORS OF MAS-RELATED G-PROTEIN RECEPTOR D” (ESCIENT PHARMACEUTICALS, INC., priority 2022, published 2026).

Molecular target: human MRGPRD (Homo sapiens, UniProt Q8TDS7)
Assay: MRGPRD antagonist activity, IP-One HTRF assay in CHO cells stably expressing human MRGPRD (versus 100 μM β-Alanine agonist)
Format: cell-based
Description: Chinese Hamster Ovary (CHO) cells stably expressing human MRGPRD (Eurofins, San Diego CA) were plated in a 384-well plate at 20,000 cells per well in 12 μL of Optimem (Fisher Scientific 11-058-021). Plates were kept in the incubator at 37° C. overnight. Antagonists were solubilized at a concentration of 10 mM in DMSO, and the agonists were solubilized to stock concentrations of either 50 mM in H2O (β-Alanine) or 10 mM in DMSO (all others) and then diluted in assay buffer (final concentrations of 5.7 mM Tris-HCl, 43 mM NaCl, 50 mM LiCl, pH=8). The concentration of DMSO was normalized across the plate. Antagonists were added to the plate using a Tecan D300 Digital Dispenser at nanoliter/picoliter volumes and 2 μL of agonists in assay buffer were added to each well for a final assay volume of 14 μL. Plates were covered and incubated for 1 h at 37° C. and then for 1 h at room temperature. IP-1 standards and HTRF detection reagents were added according to an IP-One—Gq Kit purchased from Cisbio (part number 621PAPEJ) and incubated in the dark for 1 h at room temperature. Assay plates were read on either a Molecular Devices SpectraMax iD5 plate reader or a BMG ClarioStar plate reader. The HTRF ratio was calculated form the raw data and graphed using GraphPad Prism to calculate IC50 values. Data are expressed as average IC50 values and average percent antagonism calculated as a percent of the maximum efficacy response. For these studies, the variability of the data was assessed by determining the standard error of mean (SEM).
The activity ranges are denoted as follows: “+++++” denotes antagonist activity<100 nM; “++++” denotes antagonist activity between 100 and 500 nM; “+++” denotes activity between 500 and 1000 nM; “++” denotes activity between 1000 and 3000 nM; and “+” denotes activity>3000 nM.

Sequence of human MRGPRD (Q8TDS7 whole entry): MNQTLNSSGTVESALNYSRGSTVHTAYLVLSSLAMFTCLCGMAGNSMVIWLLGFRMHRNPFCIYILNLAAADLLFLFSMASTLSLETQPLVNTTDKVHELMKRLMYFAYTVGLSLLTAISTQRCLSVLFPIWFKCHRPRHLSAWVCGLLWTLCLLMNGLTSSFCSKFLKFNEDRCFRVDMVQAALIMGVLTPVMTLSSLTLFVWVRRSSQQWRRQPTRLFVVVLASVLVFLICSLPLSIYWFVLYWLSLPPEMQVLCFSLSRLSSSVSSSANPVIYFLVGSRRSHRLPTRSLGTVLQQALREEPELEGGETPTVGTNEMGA

| Structure (SMILES) | IC50 [nM] |
| --- | --- |
| Cc1nn(C)c(C)c1-c1ccc(-n2nnc(C(=O)Nc3ccncc3)c2C2CC2)cc1C#N [Compound 7-250] | 500 to 1000 |
| Cc1nn(-c2ccccc2)c(C)c1-c1ccc(-n2nnc(C(=O)NC3(c4cncc(Cl)c4)CC3)c2C2CC2)cc1 [Compound 9-8] | 100 to 500 |
| O=C(Nc1ccncc1)c1nnn(-c2ccc(-c3n[nH]c4c3CCCC4)cc2)c1C1CC1 [Compound 7-94] | 100 to 500 |
| CC(=O)c1ccccc1-c1cccc(-n2nnc(C(=O)Nc3ccncc3)c2C2CC2)c1 [Compound 7-8] | > 3000 |
| N#Cc1ccc(-c2ccc(-n3nnc(C(=O)NC4(c5cncc(F)c5)CC4)c3C3CC3)cc2)cc1 [Compound 18-18] | 1000 to 3000 |
| CS(=O)(=O)Nc1cccc(NC(=O)c2nnn(-c3ccc(-c4ccccc4)cc3)c2C2CC2)c1 [Compound 14-77] | > 3000 |
| CC(C)c1c(C(=O)Nc2cccc(C#N)c2)nnn1-c1ccc(-c2cnn(C)c2)cc1 [Compound 17-30] | 500 to 1000 |
| COc1ccc2[nH]cc(CC(C)NC(=O)c3nnn(-c4ccc(-c5ccccc5)cc4)c3C3CC3)c2c1 (stereo not drawn) [Compound 14-59] | 1000 to 3000 |
| Cc1cc(-n2nnc(C(=O)Nc3ccncc3)c2C2CC2)ccc1-c1c(C)nn(C)c1C [Compound 7-271] | 500 to 1000 |
| COc1cc(-n2nnc(C(=O)Nc3ccncc3)c2C2CC2)ccc1C [Compound 2-6] | 1000 to 3000 |
| Cn1ccnc1-c1ccc(-n2nnc(C(=O)Nc3ccncc3)c2C2CC2)cc1 [Compound 7-163] | 1000 to 3000 |
| O=C(Nc1cccc(-n2cncn2)c1)c1nnn(-c2ccc(-c3ccccc3)cc2)c1C1CC1 [Compound 14-24] | 500 to 1000 |
| Cc1cc(NC(=O)c2nnn(-c3ccc(-c4c(C)nn(C)c4C)cc3F)c2C2CC2)ccn1 [Compound 7-220] | < 100 |
| Cc1cn(C)nc1-c1ccc(-n2nnc(C(=O)Nc3ccncc3)c2C2CC2)cc1 [Compound 7-110] | 100 to 500 |
| CCn1cc(CNC(=O)c2nnn(-c3ccc(-c4ccc(C#N)cc4)cc3F)c2C2CC2)cn1 [Compound 22-3] | 1000 to 3000 |
| Cc1nn(C2CCC2)c(C)c1-c1cccc(-n2nnc(C(=O)Nc3ccncc3)c2C2CC2)c1 [Compound 7-290] | 1000 to 3000 |
| N#Cc1ccc(-c2ccc(-n3nnc(C(=O)NC4(c5cncc(Cl)c5)CC4)c3C3CC3)cc2)cc1F [Compound 18-13] | 100 to 500 |
| CCc1ccc(-n2nnc(C(=O)Nc3ccncc3)c2C2CC2)cc1 [Compound 3-2] | 1000 to 3000 |
| O=C(Nc1ccncc1)c1nnn(-c2ccc(-c3ccnn3C3CCC3)cc2)c1C1CC1 [Compound 7-116] | 500 to 1000 |
| Cc1nn(C)c(C)c1-c1ccc(-n2nnc(C(=O)Nc3ccncc3)c2C2CC2)cc1C(F)(F)F [Compound 7-331] | > 3000 |
| CCn1nccc1-c1ccc(-n2nnc(C(=O)Nc3ccncc3)c2C2CC2)cc1 [Compound 7-92] | 100 to 500 |

| Structure (SMILES) | IC50 [nM] |
| --- | --- |
| CC(=O)c1cccc(-c2cc(-n3nnc(C(=O)Nc4ccncc4)c3C3CC3)ccc2-c2c(C)nn(C)c2C)c1 [Compound 25-1, 1-(3′-acetyl-6-(1,3,5-trimethyl-1H-pyrazol-4-yl)-[1,1′-biphenyl]-3-yl)-5-cyclopropyl-N-(pyridin-4-yl)-1H-1,2,3-triazole-4-carboxamide] | 1000 to 3000 |
| N#Cc1ccccc1-c1ccc(-n2nnc(C(=O)Nc3ccncc3)c2C2CC2)cc1 [Compound 7-180] | 1000 to 3000 |
| CCn1cc(C2(NC(=O)c3nnn(-c4ccc(-c5ccc(C#N)c(F)c5)cc4)c3C(C)C)CC2)cn1 [Compound 17-23] | 100 to 500 |
| Cc1ccc(-n2nnc(C(=O)Nc3ccncc3)c2C2CCC2)cc1 [Compound 3-5] | 500 to 1000 |
| O=C(Nc1ccncc1)c1nnn(-c2ccc(-c3ccccc3-c3ccccc3)cc2)c1C1CC1 [Compound 7-327] | 1000 to 3000 |
| O=C(Nc1ccncc1)c1nnn(-c2cccc(-c3cnn(C(F)F)c3)c2)c1C1CC1 [Compound 7-329] | > 3000 |
| CN(C)Cc1cccc(-c2ccc(-n3nnc(C(=O)Nc4ccncc4)c3C3CC3)cc2)c1 [Compound 7-146] | 500 to 1000 |
| CC(NC(=O)c1nnn(-c2ccc(-c3ccccc3)cc2)c1C1CC1)c1cnn(C(C)(C)C)c1 (stereo not drawn) [Compound 14-43] | 1000 to 3000 |
| Cc1ccc(-n2nnc(C(=O)Nc3ccncc3)c2C(C)C)cc1 [Compound 1-19] | 500 to 1000 |
| N#Cc1ccc(-c2ccc(-n3nnc(C(=O)Nc4ccncc4)c3C3CC3)cc2)cc1F [Compound 7-22] | 100 to 500 |
| Cc1ccc(-n2nnc(C(=O)Nc3ccncc3)c2C2CC2)cc1-c1cnn(C(C)C)c1 [Compound 7-260] | 500 to 1000 |
| Cc1nn(C)c(C)c1-c1ccc(-n2nnc(C(=O)Nc3ccccn3)c2C(C)C)cc1 [Compound 17-25] | 100 to 500 |
| NS(=O)(=O)c1ccc(-c2ccc(-n3nnc(C(=O)Nc4ccncc4)c3C3CC3)cc2)cc1 [Compound 7-141] | 500 to 1000 |
| Cc1cc(NC(=O)c2nnn(C3CC=C(c4ccc(C#N)cc4)CC3)c2C2CC2)ccn1 (stereo not drawn) [Compound 23-1, 1-(4′-cyano-2,3,4,5-tetrahydro-[1,1′-biphenyl]-4-yl)-5-cyclopropyl-N-(2-methylpyridin-4-yl)-1H-1,2,3-triazole-4-carboxamide] | 100 to 500 |
| O=C(Nc1ccncc1)c1nnn(-c2ccc(-c3ccc(O)cc3)cc2)c1C1CC1 [Compound 7-58] | 100 to 500 |
| Cn1cc(-c2ccc(-n3nnc(C(=O)Nc4ccncc4)c3C3CC3)cc2)c(C(F)(F)F)n1 [Compound 7-217] | > 3000 |
| Cc1n[nH]c(C)c1-c1ccc(-n2nnc(C(=O)Nc3ccncc3)c2C2CC2)cc1 [Compound 7-102] | 100 to 500 |
| O=C(Nc1ccncc1)c1nnn(-c2ccc(-c3ccc(CO)cc3)cc2)c1C1CC1 [Compound 7-69] | 100 to 500 |
| O=C(Nc1ccncc1)c1nnn(-c2ccc(-c3ccc(OC(F)(F)F)cc3)cc2)c1C1CC1 [Compound 7-195] | 1000 to 3000 |
| Cc1ccc(CNC(=O)c2nnn(-c3ccc(-c4ccc(C#N)nc4)cc3)c2C(C)C)cn1 [Compound 17-33] | 1000 to 3000 |
| CC(=O)c1cccc(-n2nnc(C(=O)Nc3ccncc3)c2C2CC2)c1 [Compound 2-9] | 1000 to 3000 |

| Structure (SMILES) | IC50 [nM] |
| --- | --- |
| O=C(Nc1ccnc(N2CCOCC2)c1)c1nnn(-c2ccc(-c3ccccc3)cc2)c1C1CC1 [Compound 14-48] | 1000 to 3000 |
| O=C(Nc1ccncc1)c1nnn(-c2ccc3ccccc3c2)c1C1CC1 [Compound 5-3] | 500 to 1000 |
| O=C(Nc1ccnc(C(F)F)c1)c1nnn(-c2ccc(-c3ccccc3)cc2)c1C1CC1 [Compound 14-22] | 500 to 1000 |
| CCn1cc(CNC(=O)c2nnn(C3CC=C(c4ccc(C#N)cc4)CC3)c2C2CC2)cn1 (stereo not drawn) [Compound 12-8] | 1000 to 3000 |
| CC(=O)c1ccc(-c2ccc(-n3nnc(C(=O)Nc4ccncc4)c3C3CC3)cc2)cc1F [Compound 7-104] | 100 to 500 |
| Cc1ccc(-n2nnc(C(=O)Nc3cc(F)nc(F)c3)c2C2CC2)cc1 [Compound 1-5] | 500 to 1000 |
| O=C(Nc1ccncc1)c1nnn(-c2ccc(-c3ccccc3CO)cc2)c1C1CC1 [Compound 7-151] | 500 to 1000 |
| O=C(Nc1ccncc1)c1nnn(-c2cccc(-c3cccc(Cl)c3)c2)c1C1CC1 [Compound 7-324] | 1000 to 3000 |
| COc1cc(-c2ccccc2)ccc1-n1nnc(C(=O)Nc2ccnc(C)c2)c1C1CC1 [Compound 7-272] | 500 to 1000 |
| Cc1cnn(C2CCCCO2)c1-c1ccc(-n2nnc(C(=O)Nc3ccncc3)c2C2CC2)cc1 (stereo not drawn) [Compound 7-193] | 1000 to 3000 |
| Cc1c(C(C)NC(=O)c2nnn(-c3ccc(-c4ccccc4)cc3)c2C2CC2)cnn1C (stereo not drawn) [Compound 14-64] | 1000 to 3000 |
| COc1cc(-c2ccc(C#N)cc2)ccc1-n1nnc(C(=O)Nc2ccnc(C)c2)c1C1CC1 [Compound 7-228] | 100 to 500 |
| Cc1cc(NC(=O)c2nnn(C3CC=C(c4c(C)nn5ccccc45)CC3)c2C2CC2)ccn1 (stereo not drawn) [Compound 12-5] | 500 to 1000 |
| COc1ccc(C2(NC(=O)c3nnn(-c4ccc(-c5ccc(C#N)cc5)cc4)c3C(C)C)CC2)cn1 [Compound 18-24] | 500 to 1000 |
| Cc1nn(C)c(C)c1-c1ccc(-n2nnc(C(=O)Nc3ccncc3)c2C2CC2)c(OC(F)(F)F)c1 [Compound 7-239] | 100 to 500 |
| CC(=O)c1ccc(-c2cccc(-n3nnc(C(=O)Nc4ccncc4)c3C3CC3)c2)c(F)c1 [Compound 7-229] | 100 to 500 |
| Cn1c(CNC(=O)c2nnn(-c3ccc(-c4ccc(CC#N)cc4)cc3)c2C2CC2)nc2ccccc21 [Compound 15-6] | 1000 to 3000 |
| Cc1c(-c2ccc(-n3nnc(C(=O)Nc4ccncc4)c3C3CC3)cc2)c(C#N)nn1C [Compound 7-120] | 500 to 1000 |
| Cc1c(-c2cccc(-n3nnc(C(=O)Nc4ccncc4)c3C3CC3)c2)cnn1-c1ccccc1 [Compound 7-240] | 100 to 500 |
| COc1ccc(C2(NC(=O)c3nnn(-c4ccc(-c5ccc(C(N)=O)cc5)cc4)c3C3CC3)CC2)cn1 [Compound 18-7] | 1000 to 3000 |
| N#Cc1ccc(-c2ccc(-n3nnc(C(=O)NC4(c5cccnc5)CC4)c3C3CC3)cc2)cc1 [Compound 18-3, 1-(4′-cyano-[1,1′-biphenyl]-4-yl)-5-cyclopropyl-N-(1-(pyridin-3-yl)cyclopropyl)-1H-1,2,3-triazole-4-carboxamide] | 500 to 1000 |
